Consider 30 molecules from patent publication US7579359B2, “1-alkoxy 1H-imidazo ring systems and methods” (3M Innovative Properties Company, priority 2004, dated 2009).

The melting point is the temperature of the solid-liquid transition.

Turning to `CCCCc1nc2c(N)nc3ccccc3c2n1OC(C)C` [Example 28, 2-Butyl-1-isopropoxy-1H-imidazo[4,5-c]quinolin-4-amine], the melting point lay within 118 to 119 °C.

Turning to `COn1c(-c2ccccc2)nc2c(N)nc3ccccc3c21` [Example 10, 1-Methoxy-2-phenyl-1H-imidazo[4,5-c]quinolin-4-amine], the melting point lay in the range of 241 to 243 °C. On to `Cc1nc2c(N)nc3ccccc3c2n1OCc1ccccc1[N+](=O)[O-]` [Example 29, 2-Methyl-1-[(2-nitrobenzyl)oxy]-1H-imidazo[4,5-c]quinolin-4-amine], for which the melting point was 215 to 217 °C.

In turn, `Cc1nc2c(N)nc3ccccc3c2n1OC(C)(C)C` [Example 30, 1-tert-Butoxy-2-methyl-1H-imidazo[4,5-c]quinolin-4-amine] registered a melting point of 255 to 257 °C. With `Nc1nc2ccccc2c2c1nc(-c1ccccc1)n2OCc1ccccc1` [Example 16, 1-(Benzyloxy)-2-phenyl-1H-imidazo[4,5-c]quinolin-4-amine] the figure was 177 to 179 °C; with `CCCc1nc2c(N)nc3ccccc3c2n1OCC` [Example 3, 1-Ethoxy-2-propyl-1H-imidazo[4,5-c]quinolin-4-amine], 198 to 199 °C. `COn1c(C(C)(C)C)nc2c(N)nc3ccccc3c21` [Example 15, 2-Tert-butyl-1-methoxy-1H-imidazo[4,5-c]quinolin-4-amine] displayed a melting point of 195 to 197 °C. Molecule `CCc1nc2c(N)nc3ccccc3c2n1OC` [Example 4, 2-Ethyl-1-methoxy-1H-imidazo[4,5-c]quinolin-4-amine] came in with a melting point of 216 to 217 °C. With `CCOn1cnc2c(N)nc3ccccc3c21` [Example 20, 1-Ethoxy-1H-imidazo[4,5-c]quinolin-4-amine] the figure was 179 to 181 °C; with `CCCc1nc2c(N)nc3ccccc3c2n1O` [Example 24, 4-Amino-2-propyl-1H-imidazo[4,5-c]quinolin-1-ol], 232 to 235 °C. With `Cc1nc2c(N)nc3ccccc3c2n1OC(C)C` [Example 6, 1-Isopropoxy-2-methyl-1H-imidazo[4,5-c]quinolin-4-amine] the figure was 243 °C; with `CC(C)On1cnc2c(N)nc3ccccc3c21` [Example 23, 1-Isopropoxy-1H-imidazo[4,5-c]quinolin-4-amine], 224 to 225 °C; with `Cc1nc2c(N)nc3ccccc3c2n1OCCOc1ccccc1` [Example 31, 2-Methyl-1-(2-phenoxyethoxy)-1H-imidazo[4,5-c]quinolin-4-amine], 237 to 239 °C. With `Cc1nc2c(N)nc3ccccc3c2n1OCC(C)C` [Example 8, 1-Isobutoxy-2-methyl-1H-imidazo[4,5-c]quinolin-4-amine] the figure was 215 to 216 °C. For `CC(C)On1c(CO)nc2c(N)nc3ccccc3c21` [Example 19], the melting point lay within 204 to 206 °C. With `CCCc1nc2c(N)nc3ccccc3c2n1OCC(N)=O` [Example 33, 2-[(4-Amino-2-propyl-1H-imidazo[4,5-c]quinolin-1-yl)oxy]acetamide] the figure was 192 to 194 °C; with `COn1cnc2c(N)nc3ccccc3c21` [Example 22, 1-Methoxy-1H-imidazo[4,5-c]quinolin-4-amine], 238 to 240 °C; with `COn1c(C)nc2c(N)nc3ccccc3c21` [Example 7, 1-Methoxy-2-methyl-1H-imidazo[4,5-c]quinolin-4-amine], 237 to 238 °C. `CC(C)On1c(C(C)C)nc2c(N)nc3ccccc3c21` [Example 26, 1-Isopropoxy-2-isopropyl-1H-imidazo[4,5-c]quinolin-4-amine] had a melting point of 177 to 179 °C. Molecule `CCCc1nc2c(N)nc3ccccc3c2n1OC` [Example 1, 1-Methoxy-2-propyl-1H-imidazo[4,5-c]quinolin-4-amine] returned a melting point of 210 to 211 °C. Consider `CCCc1nc2c(N)nc3ccccc3c2n1OCc1ccccc1` [Example 2, 1-Benzyloxy-2-propyl-1H-imidazo[4,5-c]quinolin-4-amine], for which the melting point is 164 to 166 °C. With `CCOn1c(C)nc2c(N)nc3ccccc3c21` [Example 9, 1-Ethoxy-2-methyl-1H-imidazo[4,5-c]quinolin-4-amine] the figure was 219 to 221 °C; with `CC(C)On1c(C(C)(C)C)nc2c(N)nc3ccccc3c21` [Example 14, 2-Tert-butyl-1-isopropoxy-1H-imidazo[4,5-c]quinolin-4-amine], 187 to 189 °C; with `CC(C)On1c(C2CCCCC2)nc2c(N)nc3ccccc3c21` [Example 12, 2-Cyclohexyl-1-isopropoxy-1H-imidazo[4,5-c]quinolin-4-amine], 175 to 178 °C. The molecule `CCCCc1nc2c(N)nc3ccccc3c2n1OC` [Example 27, 2-Butyl-1-methoxy-1H-imidazo[4,5-c]quinolin-4-amine] registered a melting point of 197 to 199 °C. Regarding `COn1c(C(C)C)nc2c(N)nc3ccccc3c21` [Example 25, 2-Isopropyl-1-methoxy-1H-imidazo[4,5-c]quinolin-4-amine], the melting point was in the range of 217 to 219 °C. As to `CC(C)On1c(-c2ccccc2)nc2c(N)nc3ccccc3c21` [Example 11, 1-Isopropoxy-2-phenyl-1H-imidazo[4,5-c]quinolin-4-amine], the melting point was 188 to 191 °C. With `CCc1nc2c(N)nc3ccccc3c2n1OC(C)C` [Example 5, 2-Ethyl-1-isopropoxy-1H-imidazo[4,5-c]quinolin-4-amine] the figure was 242 to 243 °C; with `CCOCc1nc2c(N)nc3ccccc3c2n1OC(C)C` [Example 18, 2-(Ethoxymethyl)-1-isopropoxy-1H-imidazo[4,5-c]quinolin-4-amine], 179 to 181 °C. As for `COn1c(C2CCCCC2)nc2c(N)nc3ccccc3c21` [Example 13, 2-Cyclohexyl-1-methoxy-1H-imidazo[4,5-c]quinolin-4-amine], the melting point is 220 to 222 °C.
